Data set [1] relates to Septoria nodorum. As to the kind of experiment: Test D: wheat glume blotch, preventive spray on wheat seedlings. It counts as in vivo. Conditions: Parastagonospora nodorum, 216 h, wheat seedlings sprayed to run-off, inoculated next day, rated after 48 h + 7 days, read-out: Percentage Disease Control Test D. The text has this:
General protocol for preparing test suspensions for Tests A-G: the test compounds were first dissolved in acetone in an amount equal to 11% of the final volume and then suspended at the desired concentration (in ppm) in acetone and purified water (50/50 mix by volume) containing 250 ppm of the surfactant Trem® 014 (polyhydric alcohol esters). The resulting test suspensions were then used in Tests A-G. Spraying a 200 ppm test suspension to the point of run-off on the test plants was the equivalent of a rate of 800 g/ha. The test suspension was sprayed to the point of run-off on wheat seedlings. The following day the seedlings were inoculated with a spore suspension of Septoria nodorum (the causal agent of wheat glume blotch) and incubated in a saturated atmosphere at 20° C. for 48 h, and then moved to a growth chamber at 20° C. for 7 days, after which time disease ratings were visually made. Results for Tests A-G are given in Table A. In the Table, a rating of 100 indicates 100% disease control and a rating of 0 indicates no disease control (relative to the controls). A dash (-) indicates no test results. All results are for 200 ppm except where followed by an “*”, which indicates 40 ppm.

Data set [2] relates to Erysiphe graminis f. sp. tritici. As to the kind of experiment: Test A: wheat powdery mildew, preventive spray on wheat seedlings. In kind it is in vivo. Conditions: Blumeria graminis, 192 h, wheat seedlings sprayed to run-off, inoculated next day, rated after 8 days, 100 = 100% disease control, 0 = no control, read-out: Percentage Disease Control Test A. An excerpt:
General protocol for preparing test suspensions for Tests A-G: the test compounds were first dissolved in acetone in an amount equal to 11% of the final volume and then suspended at the desired concentration (in ppm) in acetone and purified water (50/50 mix by volume) containing 250 ppm of the surfactant Trem® 014 (polyhydric alcohol esters). The resulting test suspensions were then used in Tests A-G. Spraying a 200 ppm test suspension to the point of run-off on the test plants was the equivalent of a rate of 800 g/ha. The test suspension was sprayed to the point of run-off on wheat seedlings. The following day the seedlings were inoculated with a spore dust of Erysiphe graminis f. sp. tritici, (the causal agent of wheat powdery mildew) and incubated in a growth chamber at 20° C. for 8 days, after which time disease ratings were visually made. Results for Tests A-G are given in Table A. In the Table, a rating of 100 indicates 100% disease control and a rating of 0 indicates no disease control (relative to the controls). A dash (-) indicates no test results. All results are for 200 ppm except where followed by an “*”, which indicates 40 ppm.

Results on 17 compounds are retold here after patent US8921360B2, “Heterobicycle-substituted azolyl benzene fungicides” (priority 2009, dated 2014).

As to `CC(=O)NCc1cc(-c2ccn(-c3ccc4c(c3)CCCO4)n2)ccc1Cl` [Compound 2, N-[[2-chloro-5-[1-(3,4-dihydro-2H-1-benzopyran-6-yl)-1H-pyrazol-3-yl]-phenyl]methyl]acetamide], the pest or weed control at 200 ppm was 100% in data set [1] and 84% in data set [2].
The matching figures for `O=CNCc1cc(-c2ccn(-c3ccc4c(c3)CCCO4)n2)ccc1Cl` [Compound 3, N-[[2-chloro-5-[1-(3,4-dihydro-2H-1-benzopyran-6-yl)-1H-pyrazol-3-yl]-phenyl]methyl]formamide]: 99% and 0%.
Taken in the same sequence, the figures for `CNC(=O)NCc1cc(-c2ccn(-c3ccc4c(c3)CCCO4)n2)ccc1Cl` [Compound 4, N-[[2-chloro-5-[1-(3,4-dihydro-2H-1-benzopyran-6-yl)-1H-pyrazol-3-yl]-phenyl]methyl]-N′-methylurea] were 82% and 0%.
As to `COC(=O)NCc1cc(-n2ccc(-c3ccc4c(c3)CCCO4)n2)ccc1Cl` [Compound 5, methyl N-[[2-chloro-5-[3-(3,4-dihydro-2H-1-benzopyran-6-yl)-1H-pyrazol-1-yl]phenyl]methyl]carbamate], the pest or weed control at 200 ppm in data set [1] and in data set [2] was 100% each time.
On to `COC(=O)NCc1cc(-n2ccc(-c3ccc4c(c3)OCO4)n2)ccc1Cl` [Compound 6, methyl N-[[5-[3-(1,3-benzodioxol-5-yl)-1H-pyrazol-1-yl]-2-chlorophenyl]-methyl]carbamate], for which the pest or weed control at 200 ppm in data set [1] and in data set [2] was 100% in each case.
For `COC(=O)NCc1cc(-n2ccc(-c3ccc4c(c3)OCCO4)n2)ccc1Cl` [Compound 7, methyl N-[[2-chloro-5-[3-(2,3-dihydro-1,4-benzodioxin-6-yl)-1H-pyrazol-1-yl]-phenyl]methyl]carbamate], the pest or weed control at 200 ppm in data set [1] and in data set [2] was 100% throughout.
Consider `CC(=O)NCc1cc(-n2ccc(-c3ccc4c(c3)CCCO4)n2)ccc1Cl` [Compound 8, N-[[2-chloro-5-[3-(3,4-dihydro-2H-1-benzopyran-6-yl)-1H-pyrazol-1-yl]phenyl]methyl]acetamide], for which the values for the pest or weed control at 200 ppm in data set [1] and in data set [2] were 100% and 0%, respectively.
Regarding `CNC(=O)NCc1cc(-n2ccc(-c3ccc4c(c3)CCCO4)n2)ccc1Cl` [Compound 9, N-[[2-chloro-5-[3-(3,4-dihydro-2H-1-benzopyran-6-yl)-1H-pyrazol-1-yl]phenyl]methyl]-N′-methylurea], the pest or weed control at 200 ppm in data set [1] turned out to be 100%; in data set [2] it was 0%.
Compound `COC(=O)NCc1cc(-n2ccc(-c3ccc4c(c3)CCCO4)n2)ccc1F` [Compound 11, methyl N-[[5-[3-(3,4-dihydro-2H-1-benzopyran-6-yl)-1H-pyrazol-1-yl]-2-fluorophenyl]methyl]carbamate] registered a melting point of 140 to 144 °C. Further, in data set [1], the pest or weed control at 200 ppm was 100%. Further, the pest or weed control at 200 ppm in data set [2] is 100%.
In the case of `COC(=O)NCc1cc(-c2ccn(-c3ccc4c(c3)CCCO4)n2)ccc1F` [Compound 12, methyl N-[[5-[1-(3,4-dihydro-2H-1-benzopyran-6-yl)-1H-pyrazol-3-yl]-2-fluorophenyl]methyl]carbamate], the melting point lay within 134 to 138 °C. Further, the pest or weed control at 200 ppm in data set [1] turned out to be 100%. Besides, in data set [2], the pest or weed control at 200 ppm amounted to 100%.
On to `COC(=O)NCc1cc(-c2ccn(-c3ccc4c(c3)CCCO4)n2)ccc1C` [Compound 20, methyl N-[[5-[1-(3,4-dihydro-2H-1-benzopyran-6-yl)-1H-pyrazol-3-yl]-2-methylphenyl]methyl]carbamate], for which the melting point lay within 161 to 162 °C. Besides, the pest or weed control at 200 ppm in data set [1] is 100%. In data set [2], the pest or weed control at 200 ppm was found to be 99%.
In turn, `COC(=O)NCc1cc(-c2ccn(-c3ccc4c(c3)C=C(C(=O)OC)CO4)n2)ccc1Cl` [Compound 23, methyl 6-[3-[4-chloro-3-[[(methoxycarbonyl)amino]methyl]phenyl]-1H-pyrazol-1-yl]-2H-1-benzopyran-3-carboxylate] returned a melting point of 185 to 187 °C. Also, the pest or weed control at 200 ppm in data set [1] was 73%. For the same compound, in data set [2], the pest or weed control at 200 ppm was found to be 0%.
`COC(=O)NCc1cc(-c2ccn(-c3ccc4c(c3)C=C(C(=O)O)CO4)n2)ccc1Cl` [Compound 24, 6-[3-[4-chloro-3-[[(methoxycarbonyl)amino]methyl]phenyl]-1H-pyrazol-1-yl]-2H-1-benzopyran-3-carboxylic acid] gave a melting point of 245 to 247 °C. The pest or weed control at 200 ppm in data set [1] is 89%. In addition, the pest or weed control at 200 ppm in data set [2] turned out to be 0%.
Take `COC(=O)NCc1cc(-n2ccc(-c3ccc4c(c3)CCCO4)n2)ccc1C` [Compound 25, methyl N-[[5-[3-(3,4-dihydro-2H-1-benzopyran-6-yl)-1H-pyrazol-1-yl]-2-methylphenyl]methyl]carbamate]: the melting point was 152 to 154 °C. The pest or weed control at 200 ppm in data set [1] was determined as 100%. In addition, in data set [2], the pest or weed control at 200 ppm worked out at 100%.
On to `COC(=O)NCc1cc(-c2ccn(-c3ccc4c(c3)CC3(CO4)OCCO3)n2)ccc1Cl` [Compound 28, methyl N-[[2-chloro-5-(1-spiro[2H-1-benzopyran-3(4H), 2′-[1,3]dioxolan]-6-yl-1H-pyrazol-3-yl)phenyl]methyl]carbamate], for which the melting point was 70 to 73 °C. In data set [1], the pest or weed control at 200 ppm turned out to be 99%. For the same compound, in data set [2], the pest or weed control at 200 ppm was found to be 99%.
Take `COC(=O)NCc1cc(-c2ccn(-c3ccc4c(c3)CC(=O)CO4)n2)ccc1Cl` [Compound 29, methyl N-[[2-chloro-5-[1-(3,4-dihydro-3-oxo-2H-1-benzopyran-6-yl)-1H-pyrazol-3-yl]phenyl]methyl]carbamate]: the melting point was in the range of 104 to 106 °C. The pest or weed control at 200 ppm in data set [1] came to 99%. The pest or weed control at 200 ppm in data set [2] amounted to 72%.
The matching figures for `COC(=O)NCc1cc(-c2ccn(-c3ccc4c(c3)CC(O)CO4)n2)ccc1Cl` (stereo not shown) [Compound 30, methyl N-[[2-chloro-5-[1-(3,4-dihydro-3-hydroxy-2H-1-benzopyran-6-yl)-1H-pyrazol-3-yl]phenyl]methyl]carbamate]: 136 to 138 °C, 99% and 98%.
